How the values were obtained:
MK-2206 = compound: NC1(c2ccc(-c3nc4ccn5c(=O)[nH]nc5c4cc3-c3ccccc3)cc2)CCC1 [MK-2206]; experiment: relative viability (nuclei count vs DMSO), 5 days (fraction); higher = more cells survive
In short: (§1)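 Acceptance criteria were a control CV below 25% and at least one doubling per plate. Lung cancer cell lines in 1536-well plates got five library-drug doses (not always all listed) √10 apart by pinning and were left 5 days with no medium change. Viability divides treated-well nuclei by vehicle-well nuclei and is the median across plates. Nuclei were counted by MetaXpress from 4× Hoechst images.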

Pictilisib = compound: CS(=O)(=O)N1CCN(Cc2cc3nc(-c4cccc5[nH]ncc45)nc(N4CCOCC4)c3s2)CC1 [Pictilisib]; experiment: as above
In short: as §1

Cell Line | relative viability (MK-2206; 0.01 µM) | relative viability (MK-2206; 0.03162 µM) | relative viability (MK-2206; 0.3162 µM) | relative viability (MK-2206; 1 µM) | relative viability (Pictilisib; 0.02 µM) | relative viability (Pictilisib; 0.06325 µM) | relative viability (Pictilisib; 0.6325 µM) | relative viability (Pictilisib; 1 µM, anchor plate) | relative viability (Pictilisib; 2 µM)
NCI-H596 | 1.07 | 0.929 | 0.948 | 0.669 | 0.98 | 0.957 | 0.684 | 0.405 | 0.373
NCI-H647 | 0.951 | 1.11 | 0.921 | 0.744 | 1.09 | 1.03 | 0.78 | 0.476 | 0.471
NCI-H650 | 0.986 | 0.854 | 0.97 | 0.764 | 1.03 | 0.958 | 0.848 | 0.865 | 0.687
NCI-H661 | 0.997 | 1.02 | 1.03 | 1.01 | 1.02 | 1.05 | 1.03 | 0.424 | 0.672
NCI-H727 | 0.976 | 1.01 | 0.901 | 0.894 | 1.04 | 0.92 | 0.914 | 0.39 | 0.536
NCI-H838 | 0.98 | 1.01 | 0.918 | 0.92 | 1.01 | 0.902 | 0.722 | 0.455 | 0.426
NCI-H1299 | 1.02 | 1.02 | 1.04 | 1.01 | 1.06 | 1.05 | 1.06 | 0.773 | 0.991
NCI-H1355 | 0.977 | 0.997 | 0.9 | 0.788 | 0.977 | 1 | 0.918 | 0.461 | 0.588
NCI-H1395 | 1 | 0.91 | 0.701 | 0.793 | 1.12 | 1.01 | 0.715 | 0.649 | 0.54
NCI-H1437 | 0.993 | 0.963 | 1.07 | 0.925 | 1.03 | 1.06 | 0.902 | 0.482 | 0.528
NCI-H1563 | 0.925 | 0.975 | 0.885 | 0.764 | 1.01 | 0.929 | 0.668 | 0.626 | 0.533
NCI-H1623 | 0.957 | 1.07 | 0.946 | 0.914 | 0.962 | 0.94 | 0.664 |  | 0.341
NCI-H1648 | 0.873 | 1.06 | 1.06 | 1.05 | 0.783 | 0.906 | 0.39 |  | 0.318
NCI-H1650 | 0.854 | 1.01 | 0.883 | 0.946 | 1 | 1.01 | 0.809 | 0.598 | 0.532
NCI-H1651 | 0.949 | 0.968 | 1.03 | 0.937 | 0.961 | 0.997 | 0.918 | 0.639 | 0.631
NCI-H1666 | 0.973 | 0.9 | 1.04 | 0.846 | 1.06 | 1.11 | 0.961 | 0.47 | 0.679
NCI-H1703 | 0.985 | 0.868 | 0.825 | 0.784 | 0.929 | 0.806 | 0.408 | 0.244 | 0.208
NCI-H1734 | 1.01 | 0.988 | 0.764 | 0.795 | 1.04 | 0.998 | 0.623 | 0.475 | 0.435
NCI-H1755 | 0.955 | 0.989 | 0.907 | 0.918 | 1.01 | 0.979 | 0.925 | 0.434 | 0.639

Cell Line | relative viability (MK-2206; 0.01 µM) | relative viability (MK-2206; 0.03162 µM) | relative viability (MK-2206; 0.3162 µM) | relative viability (MK-2206; 1 µM) | relative viability (Pictilisib; 0.02 µM) | relative viability (Pictilisib; 0.06325 µM) | relative viability (Pictilisib; 0.6325 µM) | relative viability (Pictilisib; 1 µM, anchor plate) | relative viability (Pictilisib; 2 µM)
NCI-H1792 | 0.941 | 0.869 | 0.971 | 0.677 | 0.762 | 1.1 | 0.618 | 0.31 | 0.236
NCI-H1793 | 0.979 | 1.04 | 0.887 | 0.743 | 0.864 | 0.956 | 0.539 | 0.343 | 0.359
NCI-H1915 | 1 | 1.06 | 0.967 | 0.95 | 1.06 | 1.04 | 0.95 | 0.96 | 0.909
NCI-H1944 | 1.03 | 1.01 | 0.965 | 0.987 | 1.15 | 0.879 | 0.595 | 0.354 | 0.32
NCI-H1975 | 1.06 | 0.931 | 0.913 | 0.728 | 0.98 | 0.804 | 0.605 | 0.307 | 0.292
NCI-H1993 | 0.907 | 0.987 | 0.737 | 0.618 | 0.94 | 0.869 | 0.639 | 0.766 | 0.674
NCI-H2009 | 0.97 | 1.04 | 1.02 | 0.993 | 1.03 | 1.04 | 0.967 | 0.783 | 0.679
NCI-H2023 | 0.972 | 0.946 | 0.757 | 0.605 | 1.04 | 0.831 | 0.55 | 0.262 | 0.18
NCI-H2085 | 0.965 | 1.01 | 0.957 | 0.969 | 0.956 | 0.99 | 0.836 | 0.471 | 0.442
NCI-H2087 | 0.938 | 1.25 | 0.881 | 0.746 | 1.07 | 1.09 | 0.968 | 0.913 | 0.689
NCI-H2126 | 1.04 | 1.03 | 0.913 | 0.92 | 0.999 | 0.992 | 0.806 | 0.52 | 0.57
NCI-H2170 | 0.93 | 1.03 | 0.923 | 0.877 | 1 | 1.02 | 0.86 | 0.329 | 0.556
NCI-H2228 | 0.871 | 0.845 | 0.658 | 0.517 | 0.962 | 0.998 | 0.742 | 0.413 | 0.361
NCI-H2342 | 1.05 | 0.959 | 0.892 | 0.815 | 0.949 | 0.931 | 0.838 |  | 0.531
NCI-H2347 | 0.952 | 0.997 | 0.997 | 0.945 | 1.02 | 1.05 | 0.934 | 0.644 | 0.708
NCI-H2405 | 1.02 | 1.03 | 0.968 | 0.839 | 1.07 | 0.977 | 0.851 | 0.433 | 0.451
NCI-H3122 | 1.02 | 1.03 | 1.05 | 0.984 | 1.01 | 1.04 | 0.954 | 0.644 | 0.511
PC-3 [JPC-3] | 1.02 | 1.04 | 1.11 | 1.07 | 1.06 | 1.13 | 1.1 | 0.735 | 0.856
PC-14 | 0.937 | 1.02 | 0.991 | 1 | 1.1 | 1.14 | 0.994 | 0.672 | 0.703

Reference: the supplement of paper PMC10307832
